In article PMC5218480 (PLoS ONE, 2017):

Test system: MV-4-11 cells
Assay: Gene expression microarray analysis (Affymetrix PrimeView) and GSEA
Assay type: cell-based, human
Design: RFU PODN (11730768_x_at) / Fold change /veh PODN (11730768_x_at) / RFU LINC00158 (11744669_a_at) / Fold change /veh LINC00158 (11744669_a_at) / RFU DUSP10 (11751237_a_at) / Fold change /veh DUSP10 (11751237_a_at) / RFU ID3 (11757404_x_at) / Fold change /veh ID3 (11757404_x_at) / RFU PLEKHG5 (11737974_s_at) / Fold change /veh PLEKHG5 (11737974_s_at) / RFU LRRC4B (11730491_at) / Fold change /veh LRRC4B (11730491_at) / RFU GIMAP4 (11747438_a_at) / Fold change /veh GIMAP4 (11747438_a_at) / RFU KRT8 (11758183_x_at) / Fold change /veh KRT8 (11758183_x_at) / RFU CNN1 (11734310_a_at) / Fold change /veh CNN1 (11734310_a_at) / RFU VPS37D (11726825_at) / Fold change /veh VPS37D (11726825_at) / RFU C10orf10 (11716522_x_at) / Fold change /veh C10orf10 (11716522_x_at) / RFU KIR2DL2 /// KIR2DL4 /// KIR2DL5A /// KIR2DL5B /// KIR2DS1 /// KIR2DS2 /// KIR2DS3 /// KIR2DS4 /// KIR3DL3 /// KIR3DL3 /// KIR3DS1 (11738374_at) / Fold change /veh KIR2DL2 /// KIR2DL4 /// KIR2DL5A /// KIR2DL5B /// KIR2DS1 /// KIR2DS2 /// KIR2DS3 /// KIR2DS4 /// KIR3DL3 /// KIR3DL3 /// KIR3DS1 (11738374_at) / RFU C1QL1 (11718748_at) / Fold change /veh C1QL1 (11718748_at) / RFU TMPRSS4 (11747572_a_at) / Fold change /veh TMPRSS4 (11747572_a_at) / RFU HAMP (11756126_x_at) / Fold change /veh HAMP (11756126_x_at) / RFU RNFT2 (11725882_a_at) / Fold change /veh RNFT2 (11725882_a_at) / RFU NR4A2 (11747474_a_at) / Fold change /veh NR4A2 (11747474_a_at) / RFU ABCC12 (11746883_a_at) / Fold change /veh ABCC12 (11746883_a_at) / RFU TMEM136 (11760407_x_at) / Fold change /veh TMEM136 (11760407_x_at) / RFU CLDN22 /// WWC2 (11732394_at) / Fold change /veh CLDN22 /// WWC2 (11732394_at) / RFU HLA-DPB1 (11760878_x_at) / Fold change /veh HLA-DPB1 (11760878_x_at) / RFU SPINT1 (11716480_a_at) / Fold change /veh SPINT1 (11716480_a_at) / RFU GAP43 (11754022_s_at) / Fold change /veh GAP43 (11754022_s_at) / RFU A4GNT (11735810_at) / Fold change /veh A4GNT (11735810_at) / RFU PRB3 (11715151_x_at) / Fold change /veh PRB3 (11715151_x_at) / RFU TUBB4B (11761932_at) / Fold change /veh TUBB4B (11761932_at) / RFU CAPN14 (11732068_a_at) / Fold change /veh CAPN14 (11732068_a_at) / RFU TMCC2 (11721928_a_at) / Fold change /veh TMCC2 (11721928_a_at) / RFU IRGQ (11745062_a_at) / Fold change /veh IRGQ (11745062_a_at) / RFU FAM174B (11720279_a_at) / Fold change /veh FAM174B (11720279_a_at) / RFU TMPRSS4 (11748680_a_at) / Fold change /veh TMPRSS4 (11748680_a_at) / RFU FAM212B (11763350_a_at) / Fold change /veh FAM212B (11763350_a_at) / RFU PLEKHG5 (11743358_a_at) / Fold change /veh PLEKHG5 (11743358_a_at) / RFU ZSCAN30 (11745921_a_at) / Fold change /veh ZSCAN30 (11745921_a_at) / RFU CMKLR1 (11741424_a_at) / Fold change /veh CMKLR1 (11741424_a_at) / RFU LOC101060620 /// MAPK8IP1 (11723275_at) / Fold change /veh LOC101060620 /// MAPK8IP1 (11723275_at) / RFU SPTSSB (11747773_x_at) / Fold change /veh SPTSSB (11747773_x_at) / RFU PRSS12 (11739890_at) / Fold change /veh PRSS12 (11739890_at) / RFU BIN1 (11741810_x_at) / Fold change /veh BIN1 (11741810_x_at) / RFU WNT11 (11732464_a_at) / Fold change /veh WNT11 (11732464_a_at) / RFU C10orf10 (11716521_a_at) / Fold change /veh C10orf10 (11716521_a_at) / RFU C5orf56 (11738089_at) / Fold change /veh C5orf56 (11738089_at) / RFU CYB561 (11721691_x_at) / Fold change /veh CYB561 (11721691_x_at) / RFU ANKRD19P (11752326_a_at) / Fold change /veh ANKRD19P (11752326_a_at) / RFU OR2T12 /// OR2T33 /// OR2T8 (11738714_s_at) / Fold change /veh OR2T12 /// OR2T33 /// OR2T8 (11738714_s_at) / RFU VCAN (11748164_a_at) / Fold change /veh VCAN (11748164_a_at) / RFU JSRP1 (11732532_at) / Fold change /veh JSRP1 (11732532_at) / RFU KRTAP10-11 (11738290_x_at) / Fold change /veh KRTAP10-11 (11738290_x_at) / RFU MYO3A (11730013_a_at) / Fold change /veh MYO3A (11730013_a_at) / RFU EBF3 (11725865_a_at) / Fold change /veh EBF3 (11725865_a_at) / RFU CAMK2N1 (11719241_x_at) / Fold change /veh CAMK2N1 (11719241_x_at) / RFU C5orf56 (11738088_a_at) / Fold change /veh C5orf56 (11738088_a_at) / RFU OLFML3 (11715873_a_at) / Fold change /veh OLFML3 (11715873_a_at) / RFU LOC100653217 /// NTM (11731650_a_at) / Fold change /veh LOC100653217 /// NTM (11731650_a_at) / RFU MAPK11 (11762145_a_at) / Fold change /veh MAPK11 (11762145_a_at) / RFU FIZ1 (11724087_x_at) / Fold change /veh FIZ1 (11724087_x_at) / RFU OASL (11726364_x_at) / Fold change /veh OASL (11726364_x_at) / RFU SOX15 (11748057_x_at) / Fold change /veh SOX15 (11748057_x_at) / RFU CD79A (11719716_a_at) / Fold change /veh CD79A (11719716_a_at) / RFU HIST1H1D (11736915_at) / Fold change /veh HIST1H1D (11736915_at) / RFU CASKIN2 (11723855_a_at) / Fold change /veh CASKIN2 (11723855_a_at) / RFU LOC730098 (11760151_x_at) / Fold change /veh LOC730098 (11760151_x_at) / RFU OR4N2 (11742367_at) / Fold change /veh OR4N2 (11742367_at) / RFU PRRT2 (11749266_a_at) / Fold change /veh PRRT2 (11749266_a_at) / RFU SNX32 (11753110_a_at) / Fold change /veh SNX32 (11753110_a_at) / RFU CDHR5 (11726645_a_at) / Fold change /veh CDHR5 (11726645_a_at) / RFU RCAN1 (11760418_a_at) / Fold change /veh RCAN1 (11760418_a_at) / RFU FAM167A (11723789_a_at) / Fold change /veh FAM167A (11723789_a_at) / RFU FAM26E (11764081_at) / Fold change /veh FAM26E (11764081_at) / RFU ISYNA1 (11749810_s_at) / Fold change /veh ISYNA1 (11749810_s_at) / RFU ACY1 (11761880_at) / Fold change /veh ACY1 (11761880_at) / RFU 11764098_at / Fold change /veh 11764098_at / RFU SAMD14 (11745864_x_at) / Fold change /veh SAMD14 (11745864_x_at) / RFU NPB (11741838_a_at) / Fold change /veh NPB (11741838_a_at) / RFU TMPRSS6 (11731388_a_at) / Fold change /veh TMPRSS6 (11731388_a_at) / RFU KRTAP10-2 (11738614_at) / Fold change /veh KRTAP10-2 (11738614_at) / RFU ARHGAP8 /// PRR5-ARHGAP8 (11727945_x_at) / Fold change /veh ARHGAP8 /// PRR5-ARHGAP8 (11727945_x_at) / RFU KRTAP5-7 /// NADSYN1 (11734609_at) / Fold change /veh KRTAP5-7 /// NADSYN1 (11734609_at) / RFU RASL12 (11751679_a_at) / Fold change /veh RASL12 (11751679_a_at) / RFU CDKN2B (11736163_a_at) / Fold change /veh CDKN2B (11736163_a_at) / RFU PRF1 (11729649_at) / Fold change /veh PRF1 (11729649_at) / RFU, ZNF638 /// ZNF638-IT1 / Fold change vs veh, ZNF638 /// ZNF638-IT1 / RFU, PANK3 / Fold change vs veh, PANK3 / RFU, SH3YL1 / Fold change vs veh, SH3YL1 / RFU, ZEB2 / Fold change vs veh, ZEB2 / RFU, NRIP1 / Fold change vs veh, NRIP1 / RFU, PTTG1IP / Fold change vs veh, PTTG1IP / RFU, CAPN2 / Fold change vs veh, CAPN2 / RFU, MED14 / Fold change vs veh, MED14 / RFU, SNORA58 / Fold change vs veh, SNORA58 / RFU, C1orf63 / Fold change vs veh, C1orf63 / RFU, LRRFIP1 / Fold change vs veh, LRRFIP1 / RFU, NDUFAF7 / Fold change vs veh, NDUFAF7 / RFU, SLC12A2 / Fold change vs veh, SLC12A2 / RFU, IBTK / Fold change vs veh, IBTK / RFU, ESF1 / Fold change vs veh, ESF1 / Fold change vs veh, TMEM50B / RFU, TAOK1 / Fold change vs veh, TAOK1 / RFU, ACBD3 / Fold change vs veh, ACBD3 / RFU, TMA16 / Fold change vs veh, TMA16 / RFU, RWDD3 / Fold change vs veh, RWDD3 / RFU, BCAT1 / Fold change vs veh, BCAT1 / RFU, EDEM3 / Fold change vs veh, EDEM3 / RFU, TMEM33 / Fold change vs veh, TMEM33 / RFU, WDR75 / Fold change vs veh, WDR75 / RFU, AHCTF1 / Fold change vs veh, AHCTF1 / RFU, TFRC / Fold change vs veh, TFRC / RFU, ZDHHC17 / Fold change vs veh, ZDHHC17 / RFU, NOM1 / Fold change vs veh, NOM1 / RFU, ARL8B / Fold change vs veh, ARL8B / RFU, ZBTB11 / Fold change vs veh, ZBTB11 / RFU, TAMM41 / Fold change vs veh, TAMM41 / RFU, KIAA1704 /// LOC100996395 / Fold change vs veh, KIAA1704 /// LOC100996395 / RFU, ING1 / Fold change vs veh, ING1 / RFU, TRMT61B / Fold change vs veh, TRMT61B / RFU, FUBP3 / Fold change vs veh, FUBP3 / RFU, TP53 / Fold change vs veh, TP53 / RFU, TNKS2 / Fold change vs veh, TNKS2 / RFU, ZFP14 / Fold change vs veh, ZFP14 / RFU, ACTR2 / Fold change vs veh, ACTR2 / RFU, PPP3R1 / Fold change vs veh, PPP3R1 / RFU, PIK3R1 / Fold change vs veh, PIK3R1 / RFU, HNRNPA1 / Fold change vs veh, HNRNPA1 / RFU, RNF170 / Fold change vs veh, RNF170 / RFU, ZNF28 / Fold change vs veh, ZNF28 / RFU, RNGTT / Fold change vs veh, RNGTT / RFU, OGT / Fold change vs veh, OGT / RFU, BRD1 / Fold change vs veh, BRD1 / RFU, MARS / Fold change vs veh, MARS / RFU, ZNF655 / Fold change vs veh, ZNF655 / RFU, FAHD1 / Fold change vs veh, FAHD1 / RFU, BDP1 / Fold change vs veh, BDP1 / RFU, LRRCC1 / Fold change vs veh, LRRCC1 / RFU, ARID1A / Fold change vs veh, ARID1A / RFU, ZNF146 / Fold change vs veh, ZNF146 / RFU, ZNF330 / Fold change vs veh, ZNF330 / RFU, GPN3 / Fold change vs veh, GPN3 / RFU, C9orf123 / Fold change vs veh, C9orf123 / RFU, N4BP2L2 / Fold change vs veh, N4BP2L2 / RFU, ARFIP1 / Fold change vs veh, ARFIP1 / RFU, FAM179B / Fold change vs veh, FAM179B / RFU, BCL10 / Fold change vs veh, BCL10 / RFU, UHRF1BP1L / Fold change vs veh, UHRF1BP1L / RFU, BET1 / Fold change vs veh, BET1 / RFU, CNOT2 / Fold change vs veh, CNOT2 / RFU, ZNF268 / Fold change vs veh, ZNF268 / Fold change vs veh, ZNF507 / RFU, DGCR2 / Fold change vs veh, DGCR2 / RFU, WDSUB1 / Fold change vs veh, WDSUB1 / Fold change vs veh, HSP90B1 /// MIR3652 / RFU, ADSS / Fold change vs veh, ADSS / RFU, GK / Fold change vs veh, GK / RFU, ZNF148 / Fold change vs veh, ZNF148 / RFU, TAF9 / Fold change vs veh, TAF9 / RFU, SLC1A5 / Fold change vs veh, SLC1A5 / RFU, SLMO2 / Fold change vs veh, SLMO2 / RFU, ABCC4 / Fold change vs veh, ABCC4 / RFU, LOC101060439 /// RAP1B / Fold change vs veh, LOC101060439 /// RAP1B / RFU, RFX7 / Fold change vs veh, RFX7 / RFU, GTPBP10 / Fold change vs veh, GTPBP10 / RFU, CNEP1R1 / Fold change vs veh, CNEP1R1 / RFU, BIVM-ERCC5 /// ERCC5 / Fold change vs veh, BIVM-ERCC5 /// ERCC5 / RFU, ILF3 / Fold change vs veh, ILF3 / RFU 11762660_at / Fold change /veh 11762660_at / RFU VCAN (11757783_s_at) / Fold change /veh VCAN (11757783_s_at) / RFU DDX43 (11728927_at) / Fold change /veh DDX43 (11728927_at) / RFU KRT8 (11758188_x_at) / Fold change /veh KRT8 (11758188_x_at) / RFU NKD1 (11759106_at) / Fold change /veh NKD1 (11759106_at) / RFU SRD5A1 (11742802_a_at) / Fold change /veh SRD5A1 (11742802_a_at) / RFU TPSAB1 /// TPSB2 (11721975_s_at) / Fold change /veh TPSAB1 /// TPSB2 (11721975_s_at) / RFU GSTM3 (11746129_a_at) / Fold change /veh GSTM3 (11746129_a_at) / RFU IL23R (11737362_x_at) / Fold change /veh IL23R (11737362_x_at) / RFU TMEM51 (11727254_a_at) / Fold change /veh TMEM51 (11727254_a_at) / RFU PIWIL2 (11732686_x_at) / Fold change /veh PIWIL2 (11732686_x_at) / RFU ORM1 (11744905_x_at) / Fold change /veh ORM1 (11744905_x_at) / RFU CCDC152 (11743942_at) / Fold change /veh CCDC152 (11743942_at) / RFU ECM1 (11717891_a_at) / Fold change /veh ECM1 (11717891_a_at) / RFU IL23R (11748794_a_at) / Fold change /veh IL23R (11748794_a_at) / RFU TNFAIP8L3 (11732012_x_at) / Fold change /veh TNFAIP8L3 (11732012_x_at) / RFU MBOAT4 (11741988_at) / Fold change /veh MBOAT4 (11741988_at) / RFU 11764193_at / Fold change /veh 11764193_at / RFU TMEM53 (11763286_at) / Fold change /veh TMEM53 (11763286_at) / RFU MAGEB2 (11727129_at) / Fold change /veh MAGEB2 (11727129_at) / RFU TMEM200A (11744735_a_at) / Fold change /veh TMEM200A (11744735_a_at) / RFU CCDC152 (11751479_a_at) / Fold change /veh CCDC152 (11751479_a_at) / RFU FAM211A (11726209_a_at) / Fold change /veh FAM211A (11726209_a_at) / RFU RGS16 (11746705_a_at) / Fold change /veh RGS16 (11746705_a_at) / RFU VCAN (11755009_s_at) / Fold change /veh VCAN (11755009_s_at) / RFU RHOB (11743442_s_at) / Fold change /veh RHOB (11743442_s_at) / RFU RGS16 (11720943_a_at) / Fold change /veh RGS16 (11720943_a_at) / RFU RGS16 (11720944_at) / Fold change /veh RGS16 (11720944_at) / RFU, VPS4B / Fold change vs veh, VPS4B / RFU, CREB1 / Fold change vs veh, CREB1 / RFU, DNAJC13 / Fold change vs veh, DNAJC13 / RFU, GNAQ / Fold change vs veh, GNAQ / RFU, CDK5R1 / Fold change vs veh, CDK5R1 / RFU, ZRANB3 / Fold change vs veh, ZRANB3 / RFU, CUL4A / Fold change vs veh, CUL4A / RFU, CCNY / Fold change vs veh, CCNY / RFU, UFL1 / Fold change vs veh, UFL1 / RFU, COG3 / Fold change vs veh, COG3 / RFU, DIAPH2 / Fold change vs veh, DIAPH2 / RFU, SKA2 / Fold change vs veh, SKA2 / RFU, AFF3 / Fold change vs veh, AFF3 / RFU, LMF1 / Fold change vs veh, LMF1 / RFU, IPO11 / Fold change vs veh, IPO11 / RFU, DFFB / Fold change vs veh, DFFB / RFU, FOXP1 / Fold change vs veh, FOXP1 / RFU, CARD8 / Fold change vs veh, CARD8 / RFU, STRN3 / Fold change vs veh, STRN3 / RFU, ADK / Fold change vs veh, ADK / RFU, RASSF2 / Fold change vs veh, RASSF2 / RFU, WIPF1 / Fold change vs veh, WIPF1 / RFU, LARP1B / Fold change vs veh, LARP1B / RFU, RASA1 / Fold change vs veh, RASA1 / RFU, RB1 / Fold change vs veh, RB1 / RFU, PPFIA1 / Fold change vs veh, PPFIA1 / RFU, MAT2A / Fold change vs veh, MAT2A / RFU, CCT5 / Fold change vs veh, CCT5 / RFU, WDR92 / Fold change vs veh, WDR92 / RFU, CUX1 / Fold change vs veh, CUX1 / RFU, TTC7A / Fold change vs veh, TTC7A / RFU, TMEM135 / Fold change vs veh, TMEM135 / RFU, DEPTOR / Fold change vs veh, DEPTOR / RFU, CPM / Fold change vs veh, CPM / RFU, DNAJB6 / Fold change vs veh, DNAJB6 / RFU, CACNA2D3 / Fold change vs veh, CACNA2D3 / RFU, DTX4 / Fold change vs veh, DTX4 / RFU, TFCP2 / Fold change vs veh, TFCP2 / RFU, GMCL1 /// GMCL1P1 / Fold change vs veh, GMCL1 /// GMCL1P1 / RFU, AEBP2 / Fold change vs veh, AEBP2 / RFU, SNHG1 /// SNORD22 /// SNORD25 /// SNORD26 /// SNORD27 /// SNORD28 /// SNORD29 /// SNORD31 / Fold change vs veh, SNHG1 /// SNORD22 /// SNORD25 /// SNORD26 /// SNORD27 /// SNORD28 /// SNORD29 /// SNORD31 / Fold change (Aza/veh), C12orf56 (ProbeSet 11735607_a_at) / Fold change (ACY-1035/veh), C12orf56 (ProbeSet 11735607_a_at) / Fold change (Aza/veh), FGFR1OP (ProbeSet 11751329_s_at) / Fold change (ACY-1035/veh), FGFR1OP (ProbeSet 11751329_s_at) / Fold change (Aza/veh), VPS36 (ProbeSet 11739960_a_at) / Fold change (ACY-1035/veh), VPS36 (ProbeSet 11739960_a_at) / RFU SYPL1 (11715823_x_at) / Fold change /veh SYPL1 (11715823_x_at) / RFU IGFBP7 (11715501_s_at) / Fold change /veh IGFBP7 (11715501_s_at) / RFU REEP3 (11722064_at) / Fold change /veh REEP3 (11722064_at) / RFU IGLL1 (11728026_x_at) / Fold change /veh IGLL1 (11728026_x_at): dose or concentration left out as unconfirmed
Conditions: MV-4-11 cells, 48 hours

SMILES: Nc1ccc(-c2cccs2)cc1NC(=O)c1ccc2c(c1)cc(C1CC1)n2CCN1CCOCC1 [ACY-1035]
- Fold change /veh HLA-DPB1 (11760878_x_at): 1.16
